Data on 16 molecules can be found in ChEMBL document CHEMBL5338746, “New Generation of sGC Stimulators: Discovery of Imidazo[1,2-a]pyridine Carboxamide BAY 1165747 (BAY-747), a Long-Acting Soluble Guanylate Cyclase Stimulator for the Treatment of Resistant Hypertension” (J Med Chem, 2023).

Series [1] addresses T1, Soluble guanylate cyclase alpha1/beta1 complex (Rattus norvegicus) (UniProt P19686+P20595). Briefly: Stimulation of recombinant rat sGC alpha1/beta1 expressed in CHO cells assessed as formation of cGMP from GTP by measuring concentration for >3-fold increase in the basal luminescence value by luminescence based analysis. The following applies: filed as activator. The series is classed as cell-based.

A short description of series [2]: Metabolic stability in rat hepatocytes assessed as clearance measured upto 90 mins by LC-MS/MS analysis. It is filed as ADME, cell-based, Hepatocyte.
A short description of series [3]: Fraction unbound in po or iv dosed Wistar rat. It is filed as ADME, organism-based. As to conditions: in vivo.
A short description of series [4]: Apparent permeability across apical to basolateral side in human Caco-2 cells incubated for 2 hrs by LC-MS/MS analysis. It is filed as ADME, cell-based.
Series [5] in a line: Efflux ratio of apparent permeability basolateral to apical side over apical to basolateral side in human Caco-2 cells incubated for 2 hrs by LC-MS/MS analysis. It is filed as ADME, cell-based.
Series [6] is described as follows: Blood clearance in Wistar rat at 0.3 mg/kg, iv administered as infusion incubated for 20 mins by HR LC-MS/MS analysis. It is filed as ADME, organism-based. The following applies: whole blood.
Series [7] is described as follows: Volume of distribution at steady state in Wistar rat at 0.3 mg/kg, iv administered as infusion by LC-MS/MS analysis. It is filed as ADME, organism-based. The following applies: in vivo, read-out: Vdss.
Series [8] is described as follows: Half life in Wistar rat at 0.3 mg/kg, iv administered as infusion by LC-MS/MS analysis. It is filed as ADME, organism-based. The following applies: in vivo.
Series [9] can be described thus: Oral bioavailability in Wistar rat at 1 mg/kg by LC-MS/MS analysis. It is filed as ADME, organism-based. As to conditions: in vivo.
The nature of series [10]: Solubility of compound in PBS at pH 6.5 measured for 24 hrs by LC-MS/MS analysis. The series is classed as physicochemical.
In series [11] the target is T1, Soluble guanylate cyclase alpha1/beta1 complex (Rattus norvegicus). In words: Stimulation of recombinant rat sGC alpha1/beta1 expressed in CHO cells assessed as formation of cGMP from GTP in presence of NO donor SNAP by measuring basal luminescence value by luminescence based analysis. It is filed as cell-based. As to conditions: filed as activator, dose 300.0 nM.

The test system of the next series is CHO. Briefly: Stimulation of recombinant rat sGC alpha1/beta1 expressed in CHO cells assessed as formation of cGMP from GTP in presence of […] ODQ by measuring basal luminescence value by luminescence based analysis. It is filed as cell-based. As to conditions: dose 300.0 nM, time 3.0 hrs.
In a further series the test system is Aorta. In words: Vasorelaxant activity in New Zealand White rabbits aortic rings assessed as reduction in phenylephrine-induced contraction measured after 30 mins. The series is classed as functional, tissue-based. As to conditions: Oryctolagus cuniculus, 0.5 h.
The subject of series [12] is Rattus norvegicus. In words: Antihypertensive activity in spontaneous hypertensive Wistar rat assessed as decrease in systolic blood pressure iv administered as bolus injection measured for 21 days by tail-cuff method. It is filed as functional, organism-based. As to conditions: dose 0.3-3 mg/kg, time 21.0 day.
Series [13] has as its system Rattus norvegicus. In words: Antihypertensive activity in spontaneous hypertensive Wistar rat assessed as decrease in systolic blood pressure at 0.3 mg/kg, iv administered as bolus injection measured for 21 days by tail-cuff method. The series is classed as functional. The following applies: time 21 day.
Series [14] relates to Rattus norvegicus. In words: Antihypertensive activity in spontaneous hypertensive Wistar rat assessed as decrease in systolic blood pressure at 1 mg/kg, iv administered as bolus injection measured for 21 days by tail-cuff method. The series is classed as functional. The following applies: time 21 day.
The test system of series [15] is Rattus norvegicus. In words: Antihypertensive activity in spontaneous hypertensive Wistar rat assessed as decrease in systolic blood pressure at 3 mg/kg, iv administered as bolus injection measured for 21 days by tail-cuff method. As to conditions: time 21 day. It is filed as functional.
In series [16] the test system is Rattus norvegicus. Briefly: Hypotensive effect in conscious normotensive Wistar rat assessed as reduction in arterial blood pressure administered orally for 21 days by tail-cuff method. As to conditions: dose 0.3-1 mg/kg, route po, time 21.0 day. It is filed as functional, organism-based.
Series [17] relates to Rattus norvegicus. Briefly: Hypotensive effect in conscious normotensive Wistar rat assessed as reduction in arterial blood pressure at 3 mg/kg, po administered for 21 days by tail-cuff method relative to control. The series is classed as functional. Details: scale not given: the % may be the effect or the level left. The following applies: time 21 day.
In series [18] the test system is Rattus norvegicus. In words: Hypotensive effect in conscious normotensive Wistar rat assessed as reduction in arterial blood pressure at 10 mg/kg, po administered for 21 days by tail-cuff method relative to control. The following applies: time 21 day. Details: scale not given: the % may be the effect or the level left. The series is classed as functional.
The test system of series [19] is Rattus norvegicus. Briefly: Antihypertensive activity in conscious normotensive Wistar rat model assessed as increase in heart rate at 10 mg/kg, po measured after 14 hrs by radiotelemetry. It is filed as functional, organism-based.
Series [20] has as its system Rattus norvegicus. In words: Antihypertensive activity in conscious normotensive Wistar rat model assessed as increase in heart rate at 3 mg/kg, po measured after 14 hrs by radiotelemetry. The series is classed as functional, organism-based.
Series [21] has as its system Rattus norvegicus. Briefly: Antihypertensive activity in spontaneous hypertensive Wistar rat model assessed as reduction in blood pressure po administered bolus injection by radiotelemetry analysis. The series is classed as functional, organism-based. As to conditions: dose 0.3 mg/kg.
For series [22], the system named is Rattus norvegicus. In words: Antihypertensive activity in spontaneous hypertensive Wistar rat model assessed as reduction in blood pressure at 3 mg/kg, po measured after 12 hrs by radiotelemetry analysis. It is filed as functional, organism-based.
The subject of series [23] is Rattus norvegicus. Briefly: Antihypertensive activity in spontaneous hypertensive Wistar rat model assessed as reduction in blood pressure at 10 mg/kg, po measured after 12 hrs by radiotelemetry analysis. It is filed as functional. On the set-up: scale not given: the % may be the effect or the level left.

≈ marks a conversion by molar mass, not a printed value. Calls of active or inactive are those of the source. The calls are words filed in the database; no cut-off is given here.

In the case of `CCCC[C@H](CO)NC(=O)c1c(C)nc2c(OCc3c(F)cccc3F)cccn12`, in series [1], the MEC worked out at 0.05 µM. In [2], the CLhep predicted is 2 L/h/kg. For the same molecule, the fraction unbound (as a rule, free concentration divided by total concentration) in series [3] amounted to 0.049. Besides, in series [4], the Papp A→B (in general, the apparent permeability from the apical to the basolateral side of a cell layer) at 2 h came out at 413 nm/s. In addition, in [5], the efflux ratio (usually the permeability from basolateral to apical divided by that in the opposite direction, in the common usage) at 2 h came to 0.6. The clearance (as a rule, a measure of how efficiently the substance is removed, as volume per time) at […] in [6] is 1.6 L/h/kg. Further, the Vd in series [7] is 0.9 L/kg. In [8], the half-life (usually how long it takes for the measured level to halve) is 48 min. Also, the bioavailability (usually dose-corrected exposure relative to a reference, in per cent) in [9] is 65%. The concentration in solution in series [10] (solubility at 24 h) was 3 µg/mL (≈ 7.19 µM).

As for `CCCC[C@H](CO)NC(=O)c1c(C)nc2c(OCc3ccccc3)cccn12`, the MEC in [1] amounted to 1 µM. In addition, in series [2], the CLhep predicted is 2.3 L/h/kg.

With `Cc1nc2c(OCC3CCC3)cccn2c1C(=O)NCCC1(O)CCCCC1`, the MEC in [1] turned out to be 3 µM.

In the case of `Cc1nc2c(OCC3CCC3)cccn2c1C(=O)NCc1ccc(Cl)cc1`, in series [1], the MEC was found to be 1 µM. Also, the CLhep predicted in [2] was 3.6 L/h/kg. Also, in series [11], the Drug metabolism result is “Active”. Further, the Drug metabolism result with CHO is “inactive”. Further, the IC50 (usually the concentration that inhibits the measured activity by half) with Aorta came out at 0.84 µM.

Consider `CCCC[C@H](CO)NC(=O)c1c(C)nc2c(OCCC(C)C)cccn12`, for which the MEC in series [1] was 1 µM. Also, in series [2], the CLhep predicted is 2.9 L/h/kg.

For the molecule `CCCC[C@H](CO)NC(=O)c1c(C)nc2c(OCc3c(F)cc(F)cc3F)cccn12`, the MEC in series [1] is 0.1 µM. In series [2], the CLhep predicted was 1.6 L/h/kg.

For the molecule `CCCC[C@H](CO)NC(=O)c1c(C)nc2c(OCc3c(F)cccc3F)cc(F)cn12`, the MEC in series [1] was found to be 0.03 µM. The CLhep predicted in series [2] was 3.1 L/h/kg.

Turning to `Cc1nc2c(OCc3c(F)cccc3F)cccn2c1C(=O)NC(CN)c1ccc(F)c(F)c1` (single isomer, unassigned; enantiomer B), the IC50 in the series with Aorta worked out at 0.625 µM. Moreover, the Activity entry is “Dose-Dependent Effect” with Rattus norvegicus [12]; -12 mmHg in the series on Rattus norvegicus [13]; -38 mmHg in the series with Rattus norvegicus [14]; -96 mmHg in the series on Rattus norvegicus [15]; “Dose-Dependent Effect” in the series with Rattus norvegicus [16]; 8% with Rattus norvegicus [17]. Further, the Activity in the series with Rattus norvegicus [18] is 10%; with Rattus norvegicus [21], “Dose-Dependent Effect”; with Rattus norvegicus [23], 20%. The result in the series on Rattus norvegicus [19], in the series on Rattus norvegicus [20] and with Rattus norvegicus [22] was Active.

With `CCCC[C@H](CO)NC(=O)c1cnc2c(OCc3c(F)cccc3F)cccn12`, the MEC in series [1] was 0.3 µM. The CLhep predicted in [2] was 0.8 L/h/kg.

As for `Cc1nc2c(OCC3CCC3)cccn2c1C(=O)NCCOCCO`, in [1], the MEC is 3 µM. Besides, in [2], the CLhep predicted was 1.5 L/h/kg.

Take `CCCC[C@H](CO)NC(=O)c1c(C2CC2)nc2c(OCc3c(F)cccc3F)cccn12`: the MEC in series [1] came to 0.3 µM. For the same molecule, in series [2], the CLhep predicted was 2.2 L/h/kg.

On to `CCCC[C@H](CO)NC(=O)c1c(C)nc2c(OCc3c(F)cccc3F)cc(C3CC3)cn12`, for which the MEC in series [1] worked out at 1 µM. The CLhep predicted in series [2] is 3.1 L/h/kg.

Turning to `CCCC[C@H](CO)NC(=O)c1c(C)nc2c(OCc3c(F)cccc3F)cc(Cl)cn12`, in series [1], the MEC is 0.01 µM. Also, the CLhep predicted in series [2] was 2.9 L/h/kg.

Consider `CCCC[C@H](CO)NC(=O)c1c(C)nc2c(OCc3c(F)cccc3F)cc(C)cn12`, for which the MEC in series [1] is 0.01 µM. In addition, in [2], the CLhep predicted was 3.4 L/h/kg.

Regarding `CCCC[C@H](CO)NC(=O)c1c(C)nc2c(OCc3cccc(F)c3F)cccn12`, in series [1], the MEC came to 0.3 µM. The CLhep predicted in series [2] is 1.5 L/h/kg.

Consider `CCCC[C@H](CO)NC(=O)c1c(C)nc2c(OCc3c(C)cccc3C)cccn12`, for which the MEC in series [1] is 3 µM. In [2], the CLhep predicted is 2.6 L/h/kg.
